Patent US20170008888A1 (KYORIN PHARMACEUTICAL CO., LTD., priority 2014, published 2017)

Columns and labels:
TAO2 = target: T1, TAO2 (Homo sapiens, UniProt Q9UL54); assay: Probe-based (AX9989) kinase profiling in Jurkat lysate: TAO2; type: binding; conditions: read-out: Kinase inhibition % at indicated screening concentration: TAO2; for inhibition at 0.1 µM: screening concentration 0.1 μM; for inhibition at 1 µM: screening concentration 1.0 μM
T1 construct: screened for activity against several kinases in Jurkat cells; endogenous in cells; host or cells: Jurkat cell lysate
T1 sequence (Q9UL54 1-1235): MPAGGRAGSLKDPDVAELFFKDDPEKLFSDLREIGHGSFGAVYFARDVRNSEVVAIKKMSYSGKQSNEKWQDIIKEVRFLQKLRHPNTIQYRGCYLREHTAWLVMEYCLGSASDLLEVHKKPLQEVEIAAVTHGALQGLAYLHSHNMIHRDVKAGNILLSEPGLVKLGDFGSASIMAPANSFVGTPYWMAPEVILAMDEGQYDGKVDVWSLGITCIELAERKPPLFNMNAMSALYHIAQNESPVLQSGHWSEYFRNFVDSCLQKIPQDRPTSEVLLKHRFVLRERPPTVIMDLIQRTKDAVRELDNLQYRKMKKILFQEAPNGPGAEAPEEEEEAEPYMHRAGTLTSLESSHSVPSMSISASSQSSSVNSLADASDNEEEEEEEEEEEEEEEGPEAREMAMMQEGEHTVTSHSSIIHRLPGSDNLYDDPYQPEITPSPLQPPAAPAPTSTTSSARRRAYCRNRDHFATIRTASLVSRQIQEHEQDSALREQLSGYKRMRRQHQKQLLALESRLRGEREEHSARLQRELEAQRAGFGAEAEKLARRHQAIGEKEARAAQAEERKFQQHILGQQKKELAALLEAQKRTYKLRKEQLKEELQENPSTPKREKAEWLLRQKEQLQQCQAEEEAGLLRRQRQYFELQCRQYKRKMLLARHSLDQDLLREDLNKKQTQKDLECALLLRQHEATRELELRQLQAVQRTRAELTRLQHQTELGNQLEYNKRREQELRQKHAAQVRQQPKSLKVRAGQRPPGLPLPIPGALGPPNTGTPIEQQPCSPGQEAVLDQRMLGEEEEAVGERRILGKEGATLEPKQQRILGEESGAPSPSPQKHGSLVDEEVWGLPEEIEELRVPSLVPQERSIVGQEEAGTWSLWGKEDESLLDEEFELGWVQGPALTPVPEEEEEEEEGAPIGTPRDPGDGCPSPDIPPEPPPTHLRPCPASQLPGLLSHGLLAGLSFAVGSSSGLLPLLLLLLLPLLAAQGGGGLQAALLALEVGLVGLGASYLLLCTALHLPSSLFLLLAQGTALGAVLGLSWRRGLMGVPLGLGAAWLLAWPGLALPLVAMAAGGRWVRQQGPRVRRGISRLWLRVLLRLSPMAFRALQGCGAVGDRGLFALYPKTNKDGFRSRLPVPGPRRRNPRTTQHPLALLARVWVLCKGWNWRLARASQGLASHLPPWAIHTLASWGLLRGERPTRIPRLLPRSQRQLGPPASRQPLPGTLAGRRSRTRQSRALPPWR
Outline: (§1)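 Jurkat lysate (50 mM HEPES pH 7.5, 150 mM NaCl, 0.1% Triton X-100, 20 mM MnCl2) pre-incubated 15 min with compound at room temperature, then labeled with 5 μM acyl phosphate ATP probe AX9989. Tryptic probe-labeled peptides streptavidin-captured and quantified by LC/MS; percent inhibition from decreased fragment intensity versus untreated.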

ABL or ARG = assay: Probe-based (AX9989) kinase profiling in Jurkat lysate: ABL or ARG; type: binding
Outline: as §1

ERK5 = target: T2, ERK5 (Homo sapiens, UniProt Q13164); assay: Probe-based (AX9989 acyl phosphate ATP probe) kinase profiling in Jurkat lysate: ERK5; type: binding; conditions: for IC50: calculated from percent inhibition of AX9989 labeling and the screening concentration, Jurkat lysate; for inhibition at 0.1 µM: screening concentration 0.1 μM; for inhibition at 0.1 µM / inhibition at 1 µM: read-out: Kinase inhibition % at indicated screening concentration: ERK5; for inhibition at 1 µM: screening concentration 1.0 μM
T2 construct: screened for activity against several kinases in Jurkat cells; endogenous in cells; host or cells: Jurkat cell lysate
Outline: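 ERK5 IC50 values came from percent inhibition at the screening concentration, measured as loss of LC/MS signal of probe-labelled active-site peptides. Compound was added for 15 min at room temperature to Jurkat lysate (5 mg/ml, 20 mM MnCl2) before labelling with AX9989 ATP acyl phosphate probe at 5 μM.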

AurA = target: T3, AurA (Homo sapiens, UniProt O14965); assay: Probe-based (AX9989) kinase profiling in Jurkat lysate: AurA; type: binding; conditions: read-out: Kinase inhibition % at indicated screening concentration: AurA; for inhibition at 0.1 µM: screening concentration 0.1 μM; for inhibition at 1 µM: screening concentration 1.0 μM
T3 construct: screened for activity against several kinases in Jurkat cells; endogenous in cells; host or cells: Jurkat cell lysate
T3 sequence (O14965 1-403): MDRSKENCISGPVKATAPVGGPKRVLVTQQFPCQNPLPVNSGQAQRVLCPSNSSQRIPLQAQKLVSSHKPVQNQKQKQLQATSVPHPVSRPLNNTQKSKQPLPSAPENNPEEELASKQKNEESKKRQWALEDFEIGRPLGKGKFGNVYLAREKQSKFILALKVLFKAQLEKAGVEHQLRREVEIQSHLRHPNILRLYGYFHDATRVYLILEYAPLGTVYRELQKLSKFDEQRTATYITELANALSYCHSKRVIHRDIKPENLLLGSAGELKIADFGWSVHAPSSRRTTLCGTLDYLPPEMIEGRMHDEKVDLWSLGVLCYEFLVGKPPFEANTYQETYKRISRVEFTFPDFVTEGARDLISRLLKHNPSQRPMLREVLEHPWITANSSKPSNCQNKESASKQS
Outline: as §1

ACK = target: T4, ACK (Homo sapiens, UniProt Q07912); assay: Probe-based (AX9989) kinase profiling in Jurkat lysate: ACK; type: binding; conditions: read-out: Kinase inhibition % at indicated screening concentration: ACK; for inhibition at 0.1 µM: screening concentration 0.1 μM; for inhibition at 1 µM: screening concentration 1.0 μM
T4 construct: screened for activity against several kinases in Jurkat cells; endogenous in cells; host or cells: Jurkat cell lysate
Outline: as §1

AurB or AurC = assay: Probe-based (AX9989) kinase profiling in Jurkat lysate: AurB or AurC; type: binding
Outline: as §1

human PBMCs = assay: Human PBMC TNF-α response to endotoxin (ELISA); type: cell-based; conditions: 0.1 μg/ml LPS 16 h, read-out: EC50 for the inhibition of the human PBMC TNF-α response to endotoxin, ave. ± S.D.
Outline: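 PBMCs at 2e6 cells/ml in RPMI 1640 with 10% charcoal-dextran-treated FBS were pre-treated 1 h at 37 °C with compound (4-point 1:5 dilution from 10 μM). Stimulation with 0.1 μg/ml E. coli 0111:B4 LPS for 16 h; TNF-α measured by ELISA (A450) in 25-fold diluted supernatant.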

AMPKa1 or AMPKa2 = assay: Probe-based (AX9989) kinase profiling in Jurkat lysate: AMPKa1 or AMPKa2; type: binding
Outline: as §1

JAK1 = target: T5, JAK1 (Homo sapiens, UniProt P23458); assay: Probe-based (AX9989) kinase profiling in Jurkat lysate: JAK1; type: binding; conditions: read-out: Kinase inhibition % at indicated screening concentration: JAK1; for inhibition at 0.1 µM: screening concentration 0.1 μM; for inhibition at 1 µM: screening concentration 1.0 μM
T5 construct: screened for activity against several kinases in Jurkat cells; endogenous in cells; host or cells: Jurkat cell lysate
Outline: as §1

T5 sequence (P23458 whole entry): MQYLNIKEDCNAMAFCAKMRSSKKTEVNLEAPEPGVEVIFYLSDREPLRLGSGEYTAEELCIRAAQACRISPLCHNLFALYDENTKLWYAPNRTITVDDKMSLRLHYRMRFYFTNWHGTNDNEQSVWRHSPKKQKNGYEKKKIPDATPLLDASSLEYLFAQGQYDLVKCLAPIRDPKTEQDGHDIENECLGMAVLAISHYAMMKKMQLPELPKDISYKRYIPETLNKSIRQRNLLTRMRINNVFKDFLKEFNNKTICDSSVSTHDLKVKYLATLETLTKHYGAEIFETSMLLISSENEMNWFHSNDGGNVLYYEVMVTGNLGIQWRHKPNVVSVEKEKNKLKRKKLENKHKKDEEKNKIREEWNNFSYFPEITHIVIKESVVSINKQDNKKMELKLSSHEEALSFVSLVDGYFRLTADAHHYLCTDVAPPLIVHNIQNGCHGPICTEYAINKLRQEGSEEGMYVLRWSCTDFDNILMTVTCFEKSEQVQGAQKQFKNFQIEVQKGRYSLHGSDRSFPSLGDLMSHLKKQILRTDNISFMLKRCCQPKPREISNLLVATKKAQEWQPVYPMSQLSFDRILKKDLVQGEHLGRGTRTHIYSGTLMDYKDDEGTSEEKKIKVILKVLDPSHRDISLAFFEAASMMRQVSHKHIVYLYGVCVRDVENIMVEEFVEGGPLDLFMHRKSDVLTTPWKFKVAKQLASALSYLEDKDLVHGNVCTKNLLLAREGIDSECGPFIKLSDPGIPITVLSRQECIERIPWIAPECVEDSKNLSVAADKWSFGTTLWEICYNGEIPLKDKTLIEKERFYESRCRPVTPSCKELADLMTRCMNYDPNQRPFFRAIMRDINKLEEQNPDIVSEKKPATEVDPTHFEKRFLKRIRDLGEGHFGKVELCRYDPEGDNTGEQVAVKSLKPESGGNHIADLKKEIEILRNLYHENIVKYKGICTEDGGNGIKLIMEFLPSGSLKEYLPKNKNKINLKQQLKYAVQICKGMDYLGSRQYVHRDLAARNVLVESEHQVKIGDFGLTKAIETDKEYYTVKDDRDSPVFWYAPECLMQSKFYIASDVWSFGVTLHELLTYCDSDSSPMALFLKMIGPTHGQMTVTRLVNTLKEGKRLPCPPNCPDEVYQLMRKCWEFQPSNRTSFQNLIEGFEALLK
T4 sequence (Q07912 whole entry): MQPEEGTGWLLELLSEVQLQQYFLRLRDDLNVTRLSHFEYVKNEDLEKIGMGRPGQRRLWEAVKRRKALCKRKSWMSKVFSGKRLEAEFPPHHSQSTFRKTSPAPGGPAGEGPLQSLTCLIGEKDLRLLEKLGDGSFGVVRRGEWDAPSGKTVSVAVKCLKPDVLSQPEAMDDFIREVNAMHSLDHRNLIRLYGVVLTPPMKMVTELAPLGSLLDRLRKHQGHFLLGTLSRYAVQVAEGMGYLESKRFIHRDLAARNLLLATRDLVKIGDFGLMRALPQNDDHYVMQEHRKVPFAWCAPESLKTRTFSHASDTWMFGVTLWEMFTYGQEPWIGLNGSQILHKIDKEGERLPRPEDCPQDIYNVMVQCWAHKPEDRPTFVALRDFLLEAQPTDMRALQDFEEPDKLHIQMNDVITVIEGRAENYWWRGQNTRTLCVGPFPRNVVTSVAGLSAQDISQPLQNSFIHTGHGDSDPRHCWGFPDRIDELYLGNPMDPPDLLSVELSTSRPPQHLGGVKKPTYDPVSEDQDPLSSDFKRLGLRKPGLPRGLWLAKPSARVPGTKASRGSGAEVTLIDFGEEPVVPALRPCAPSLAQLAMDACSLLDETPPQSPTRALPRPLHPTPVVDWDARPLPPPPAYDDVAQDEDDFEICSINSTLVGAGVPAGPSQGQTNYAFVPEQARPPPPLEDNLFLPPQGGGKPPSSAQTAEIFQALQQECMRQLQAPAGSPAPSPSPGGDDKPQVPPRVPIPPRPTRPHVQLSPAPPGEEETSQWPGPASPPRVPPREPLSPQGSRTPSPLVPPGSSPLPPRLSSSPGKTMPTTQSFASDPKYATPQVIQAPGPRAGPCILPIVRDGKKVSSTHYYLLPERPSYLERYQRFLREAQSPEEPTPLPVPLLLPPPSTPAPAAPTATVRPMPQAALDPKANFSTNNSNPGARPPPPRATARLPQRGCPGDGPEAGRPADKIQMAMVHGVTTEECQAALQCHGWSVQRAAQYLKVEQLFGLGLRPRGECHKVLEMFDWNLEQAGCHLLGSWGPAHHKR
T2 sequence (Q13164 whole entry): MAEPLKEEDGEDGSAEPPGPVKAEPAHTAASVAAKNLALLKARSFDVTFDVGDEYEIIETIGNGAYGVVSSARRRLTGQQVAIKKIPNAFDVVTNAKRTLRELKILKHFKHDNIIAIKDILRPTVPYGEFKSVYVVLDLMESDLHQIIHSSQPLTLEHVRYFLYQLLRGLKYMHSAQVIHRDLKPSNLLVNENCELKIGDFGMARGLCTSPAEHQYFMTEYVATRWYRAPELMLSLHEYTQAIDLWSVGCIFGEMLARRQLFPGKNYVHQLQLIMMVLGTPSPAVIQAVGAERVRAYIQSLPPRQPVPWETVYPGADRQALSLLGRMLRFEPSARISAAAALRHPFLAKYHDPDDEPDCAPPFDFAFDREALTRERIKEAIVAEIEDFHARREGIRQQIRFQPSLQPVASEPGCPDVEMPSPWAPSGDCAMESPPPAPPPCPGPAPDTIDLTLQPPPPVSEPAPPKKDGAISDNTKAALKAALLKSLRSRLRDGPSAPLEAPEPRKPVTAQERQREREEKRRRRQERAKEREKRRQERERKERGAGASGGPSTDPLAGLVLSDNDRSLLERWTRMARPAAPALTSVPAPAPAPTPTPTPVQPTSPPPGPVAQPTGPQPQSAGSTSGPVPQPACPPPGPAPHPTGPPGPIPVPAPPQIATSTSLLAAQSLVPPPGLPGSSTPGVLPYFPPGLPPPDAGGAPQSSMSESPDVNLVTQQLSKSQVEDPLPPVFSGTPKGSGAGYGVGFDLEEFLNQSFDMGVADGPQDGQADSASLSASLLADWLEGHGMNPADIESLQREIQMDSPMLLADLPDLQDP

| Compound | inhibition at 0.1 µM (TAO2) | Kinase inhibition % at indicated screening concentration: ABL or ARG (ABL or ARG; screening concentration 0.1 μM) | IC50 (ERK5) | inhibition at 0.1 µM (ERK5) | inhibition at 0.1 µM (AurA) | inhibition at 0.1 µM (ACK) | Kinase inhibition % at indicated screening concentration: AurB or AurC (AurB or AurC; screening concentration 0.1 μM) | EC50 (human PBMCs) | Kinase inhibition % at indicated screening concentration: AMPKa1 or AMPKa2 (AMPKa1 or AMPKa2; screening concentration 0.1 μM) | inhibition at 0.1 µM (JAK1) | inhibition at 1 µM (TAO2) | Kinase inhibition % at indicated screening concentration: ABL or ARG (ABL or ARG; screening concentration 1.0 μM) | inhibition at 1 µM (ERK5) | inhibition at 1 µM (AurA) | inhibition at 1 µM (ACK) | Kinase inhibition % at indicated screening concentration: AurB or AurC (AurB or AurC; screening concentration 1.0 μM) | Kinase inhibition % at indicated screening concentration: AMPKa1 or AMPKa2 (AMPKa1 or AMPKa2; screening concentration 1.0 μM) | inhibition at 1 µM (JAK1) |
| --- | --- | --- | --- | --- | --- | --- | --- | --- | --- | --- | --- | --- | --- | --- | --- | --- | --- | --- |
| CCOc1cc(C(=O)N2CCC(c3c[nH]cn3)CC2)ccc1Nc1cc2c(cn1)N(C)C(=O)c1ccccc1N2C [Compound 35] | ≤ 35% | E (E is ≦35%) | 101 to 500 nM | 35 to 50% | ≤ 35% | ≤ 35% | E (E is ≦35%) | 6 µM | E (E is ≦35%) | ≤ 35% |  |  |  |  |  |  |  |  |
| COc1ccc(Nc2cc3c(cn2)N(C)C(=O)c2ccccc2N3C)c(C)c1 [Compound 41] |  |  | 101 to 500 nM |  |  |  |  | 7.61 µM |  |  | ≤ 35% | E (E is ≦35%) | 75 to 90% | ≤ 35% | ≤ 35% | E (E is ≦35%) | E (E is ≦35%) | ≤ 35% |
| CCOc1cc(C(=O)N2CCN(C(=O)OC(C)(C)C)C[C@@H]2C)ccc1Nc1cc2c(cn1)N(C)C(=O)c1ccccc1N2C [Compound 50] | ≤ 35% | E (E is ≦35%) | 101 to 500 nM | 35 to 50% | ≤ 35% | ≤ 35% | E (E is ≦35%) | 2.58 µM | E (E is ≦35%) | ≤ 35% |  |  |  |  |  |  |  |  |
| Cc1c(Nc2cc3c(cn2)N(C)C(=O)c2ccccc2N3C)cnn1C [Compound 59] |  |  | 101 to 500 nM |  |  |  |  | 5.84 µM |  |  | ≤ 35% | E (E is ≦35%) | 75 to 90% | ≤ 35% | ≤ 35% | E (E is ≦35%) | E (E is ≦35%) | ≤ 35% |
| CCOc1cc(C(=O)N2CCC(N3CCN(C)CC3)CC2)ccc1Nc1cc2c(cn1)N(C)C(=O)C1CCCCC1N2C (centres unmarked) [Compound 68] |  |  | > 500 nM |  |  |  |  | > 10 µM |  |  | ≤ 35% | E (E is ≦35%) | ≤ 35% | ≤ 35% | ≤ 35% | E (E is ≦35%) | E (E is ≦35%) | ≤ 35% |
| Cc1cc(CO)ccc1Nc1cc2c(cn1)N(C)C(=O)c1ccccc1N2C [Compound 85, 3-(4-(hydroxymethyl)-2-methylphenylamino)-5,11-dimethyl-5H-benzo[e]pyrido[3,4-b][1,4]diazepin-10(11H)-one] |  |  | 101 to 500 nM |  |  |  |  | 1.35 µM |  |  | ≤ 35% | E (E is ≦35%) | 75 to 90% | ≤ 35% | ≤ 35% | E (E is ≦35%) | E (E is ≦35%) | ≤ 35% |
| Cc1cc(C#N)ccc1Nc1cc2c(cn1)N(C)C(=O)c1ccccc1N2C [Compound 89] |  |  | 101 to 500 nM |  |  |  |  | 1.75 µM |  |  | ≤ 35% | E (E is ≦35%) | 50 to 75% | ≤ 35% | ≤ 35% | E (E is ≦35%) | E (E is ≦35%) | ≤ 35% |
| CCOc1cc(C)ccc1Nc1cc2c(cn1)N(C)C(=O)c1ccccc1N2C [Compound 95] |  |  | > 500 nM |  |  |  |  | 3.73 µM |  |  | ≤ 35% | E (E is ≦35%) | ≤ 35% | ≤ 35% | ≤ 35% | E (E is ≦35%) | E (E is ≦35%) | ≤ 35% |
